What was measured:
[1] = target: T1, AChE-induced Aβ40 fibril formation (Homo sapiens, UniProt P22303); test: ThT kinetics of AChE-induced Aβ40 fibril formation; type: biochemical; settings: co-incubation of AP5 and Aβ40 with AChE, 24-h kinetic ThT assay
T1 construct: purchased Roche (AChE); Invitrogen (Aβ40) R005282 (AChE); 03-136 (Aβ40)
Protocol: The effects of AP5 on Aβ fibril formation and pre-formed Aβ fibrils disaggregation were determined using a previously described method of Thioflavin T (ThT, T3516, Sigma Aldrich, St. Louis, MO, United States) fluorometry ([Jan et al., 2010]).
Supplementary materials and methods … ...1 […]
Supplementary Figure 1 … .....7
Supplementary Figure 2 … .....7
Supplementary materials and methods
Prepations ofspecimen for pharmacokinetics analysis
24 h afterdosing. Brains were collected at0, 0.25, 0.5,2, 4,8 and 24 h after administration.Plasma extractions were performed by adding 90 μL methanol and 2 μL internalstandard letrozole (500 ng/mL) to a30 µL plasma sample. […]
Then 90 μL methanol and 2 μL letrozolewere added to 30 µl brainhomogenates. The samples were vortexed for 3 min and centrifuged 15 min at25,000 g.The plasma and brainhomogenate were analyzed by UPLC-TSQ/MS (Thermo Fisher Scientific, Waltham, MA, USA). […]
To study the kinetics of Aβ-AChE fibril complex formation, 10 μM Aβ was mixed with AChE (R005282, Roche, Basel, Switzerland) and different concentrations AP5 and incubated with 10 μM ThT and 50 mM glycine-NaOH (pH 8.5) at 37°C, the ThT fluorescence was continually measured for 24 h at 30 min intervals. […] Fluorescence emission at485 nm was measured on a Spectra MAX GeminiXS fluorometerat an excitation wavelength of 450 nm. […]

TNF-α, IL-6, IL-1β = test: ELISA of proinflammatory cytokines, APP/PS1 mice; type: in vivo; settings: TBS fraction, AP5 40 mg/kg once daily 5 months
Protocol: APP/PS1 mice of ages 6 months were randomly divided into vehicle (APP/PS1, n = 10) and treatment groups (AP5, n = 10), which were intragastrically administered with AP5 (40 mg/kg) once daily for consecutive 5 months. AP5 was dissolved in distilled water containing 1% sodium carboxymethyl cellulose.
For detecting the pathological soluble or insoluble Aβ in mice, sequential extractions were performed as follows: the half of right hippocampus and cortex from three groups were homogenized in TBS solution containing 5 mM EDTA, phosphatase inhibitor (P1050, Beyotime, Shanghai, China), and protease inhibitor cocktail (P1010, Beyotime) followed by centrifugation at 25,000g at 4°C for 1 h. The supernatant was collected as a TBS fraction and the resulting pellet was solubilized in 70% formic acid (FA), sonicated until the lysis buffer was clear, followed by centrifugation at 25,000g at 4°C for 1 h. The supernatant was collected as the FA fraction and neutralized (1:20) in a neutralization buffer (1 M tris base, 0.5 M Na2HPO4, 0.05% NaN3). Human Aβ40 and Aβ42 were determined by ELISA kits (E-EL-H0452c and E-EL-H0453c, Elabscience, Wuhan, China) in accordance with the manufacturer’s instructions. In addition, the levels of IL-1β (88-7013-88, Invitrogen), IL-6 (EK206HS-96, Multi sciences, HangZhou, China), and TNF-α (88-7324-88, Invitrogen) in TBS fraction were also determined by ELISA.

T1 sequence (P22303 32-614): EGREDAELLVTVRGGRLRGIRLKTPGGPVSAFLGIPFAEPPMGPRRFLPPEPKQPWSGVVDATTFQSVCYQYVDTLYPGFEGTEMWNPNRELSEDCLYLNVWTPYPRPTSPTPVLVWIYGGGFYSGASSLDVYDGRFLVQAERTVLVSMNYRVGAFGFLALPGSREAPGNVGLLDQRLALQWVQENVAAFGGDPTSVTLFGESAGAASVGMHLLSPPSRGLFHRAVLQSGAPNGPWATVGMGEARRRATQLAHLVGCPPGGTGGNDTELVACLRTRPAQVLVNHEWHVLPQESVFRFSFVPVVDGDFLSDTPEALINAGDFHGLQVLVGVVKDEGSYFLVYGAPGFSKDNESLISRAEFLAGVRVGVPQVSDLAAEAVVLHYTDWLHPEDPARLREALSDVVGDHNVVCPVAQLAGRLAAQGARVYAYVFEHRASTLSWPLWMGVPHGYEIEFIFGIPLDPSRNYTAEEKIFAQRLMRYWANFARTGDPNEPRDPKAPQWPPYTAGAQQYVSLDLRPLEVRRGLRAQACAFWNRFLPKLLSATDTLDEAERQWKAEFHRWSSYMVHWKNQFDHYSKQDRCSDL

For CCN(C)C(=O)Oc1cccc(/C=C2\Cc3cc(OC)c(OC)cc3C2=O)c1 [AP5, (E)-3-((5,6-dimethoxy-1-oxo-1,3-dihydro-2H-inden-2-ylidene)-methyl)phenylethyl(methyl)carbamate], the “ThT intensity, AChE-induced Aβ40 fibril formation” value [1] was “substantially lowered the ThT intensity in a dose-dependent manner”, the IL-1β level (TNF-α, IL-6, IL-1β) was “markedly reduced” and the IL-6 level (TNF-α, IL-6, IL-1β) was “markedly reduced”. The TNF-α level (TNF-α, IL-6, IL-1β) was “markedly reduced”.
